# Source: ChEMBL document CHEMBL2073996, “Increased bioavailability of the food-derived carcinogen 2-amino-1-methyl-6-phenylimidazo[4,5-b]pyridine in MRP2-deficient rats” (Mol Pharmacol, 2001)
# Molecular target: ATP-binding cassette sub-family C member 2 (Homo sapiens, UniProt Q92887)
# Test: TP_TRANSPORTER: transepithelial transport (basal to apical) in MRP2-expressing MDCKII cells
# Format: functional, cell-based
# Conditions: dog, mdck-ii
# Sequence of ATP-binding cassette sub-family C member 2 (Q92887 whole entry): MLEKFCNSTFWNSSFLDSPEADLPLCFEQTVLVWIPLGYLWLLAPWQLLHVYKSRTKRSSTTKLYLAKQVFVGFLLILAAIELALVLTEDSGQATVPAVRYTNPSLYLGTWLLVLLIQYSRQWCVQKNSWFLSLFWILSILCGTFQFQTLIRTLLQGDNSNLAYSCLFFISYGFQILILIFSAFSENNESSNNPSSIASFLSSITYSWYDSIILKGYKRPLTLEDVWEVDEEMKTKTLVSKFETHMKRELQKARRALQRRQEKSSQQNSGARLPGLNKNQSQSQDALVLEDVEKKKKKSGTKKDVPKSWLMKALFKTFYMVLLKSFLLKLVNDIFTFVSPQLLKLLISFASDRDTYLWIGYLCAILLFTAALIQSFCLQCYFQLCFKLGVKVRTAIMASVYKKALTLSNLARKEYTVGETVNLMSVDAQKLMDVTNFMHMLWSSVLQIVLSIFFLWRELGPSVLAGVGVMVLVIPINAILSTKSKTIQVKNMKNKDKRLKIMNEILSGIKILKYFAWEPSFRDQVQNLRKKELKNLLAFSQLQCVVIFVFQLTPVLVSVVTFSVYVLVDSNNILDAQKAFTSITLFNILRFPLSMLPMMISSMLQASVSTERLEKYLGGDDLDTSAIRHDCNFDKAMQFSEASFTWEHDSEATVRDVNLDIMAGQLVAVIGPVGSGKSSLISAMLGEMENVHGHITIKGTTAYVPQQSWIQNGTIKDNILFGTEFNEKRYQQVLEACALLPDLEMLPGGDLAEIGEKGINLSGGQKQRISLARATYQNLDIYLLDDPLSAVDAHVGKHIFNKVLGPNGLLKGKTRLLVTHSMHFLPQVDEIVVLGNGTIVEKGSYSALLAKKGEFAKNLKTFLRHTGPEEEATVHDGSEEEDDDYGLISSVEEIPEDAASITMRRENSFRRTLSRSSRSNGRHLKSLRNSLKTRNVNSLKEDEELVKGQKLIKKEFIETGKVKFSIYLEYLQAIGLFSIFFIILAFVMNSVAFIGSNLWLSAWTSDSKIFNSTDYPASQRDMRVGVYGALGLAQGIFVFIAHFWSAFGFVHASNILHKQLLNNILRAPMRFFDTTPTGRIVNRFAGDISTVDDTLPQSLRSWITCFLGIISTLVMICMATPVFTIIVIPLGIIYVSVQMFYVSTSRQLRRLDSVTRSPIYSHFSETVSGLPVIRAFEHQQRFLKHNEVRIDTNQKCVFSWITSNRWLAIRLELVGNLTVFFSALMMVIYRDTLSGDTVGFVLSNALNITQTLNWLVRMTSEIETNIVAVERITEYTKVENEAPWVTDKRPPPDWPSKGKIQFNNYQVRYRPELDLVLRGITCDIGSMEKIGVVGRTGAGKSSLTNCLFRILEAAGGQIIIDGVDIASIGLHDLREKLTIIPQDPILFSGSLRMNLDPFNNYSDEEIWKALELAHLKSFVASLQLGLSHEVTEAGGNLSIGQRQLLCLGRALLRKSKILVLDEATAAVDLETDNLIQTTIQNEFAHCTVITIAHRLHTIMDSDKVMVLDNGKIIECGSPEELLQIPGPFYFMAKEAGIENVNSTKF
smiles,measurement,value
"Cn1c(N)nc2ncc(-c3ccccc3)cc21 [2-AMINO-1-METHYL-6- PHENYLIMIDAZO[4,5- B]PYRIDINE]",Activity,substrate [+]
